Assay results reported in the OligoGym collection.
Oligonucleotides are written 5' to 3', each unit as a sugar letter and its base; * is a phosphorothioate linkage, no mark a phosphodiester; rarer units and linkages stand in square brackets, end groups in braces. Plain capitals give the bases only. d = 2'-deoxy (DNA); r = 2'-OH (RNA)

Target: UBE2L6
Test: reporter assay of Huesken 2005
Conditions: siRNA
Note: test concentration or dose not given here.

Substance | normalised inhibition (eCFP-eYFP dual reporter)
sense rUrCrArUrCrArGrCrArGrUrGrArGrArArCrUrGdTdT / antisense rCrArGrUrUrCrUrCrArCrUrGrCrUrGrArUrGrAdTdG | 61.3%
sense rUrGrGrArArGrCrCrUrUrGrCrArCrCrArArGrAdTdT / antisense rUrCrUrUrGrGrUrGrCrArArGrGrCrUrUrCrCrAdGdT | 77.7%
sense rGrArUrUrUrGrCrCrUrGrCrCrCrArUrCrArUrCdTdT / antisense rGrArUrGrArUrGrGrGrCrArGrGrCrArArArUrCdTdG | 71.3%
sense rCrCrArCrCrCrCrArArCrGrUrGrGrArCrGrArGdTdT / antisense rCrUrCrGrUrCrCrArCrGrUrUrGrGrGrGrUrGrGdTdA | 67.6%
sense rUrCrCrUrCrCrUrArCrCrCrGrArCrCrArArCrCdTdT / antisense rGrGrUrUrGrGrUrCrGrGrGrUrArGrGrArGrGrAdGdA | 49.5%
sense rUrArCrCrArCrCrCrCrArArCrGrUrGrGrArCrGdTdT / antisense rCrGrUrCrCrArCrGrUrUrGrGrGrGrUrGrGrUrAdGdA | 37.4%
sense rCrGrGrArUrGrGrArCrCrUrCrGrCrUrGrArCrCdTdT / antisense rGrGrUrCrArGrCrGrArGrGrUrCrCrArUrCrCrGdCdA | 71.6%
sense rCrUrGrArCrArCrArGrArArUrCrCrGrGrArGrCdTdT / antisense rGrCrUrCrCrGrGrArUrUrCrUrGrUrGrUrCrArGdCdA | 79.6%
sense rCrArUrCrArGrCrArGrUrGrArGrArArCrUrGrGdTdT / antisense rCrCrArGrUrUrCrUrCrArCrUrGrCrUrGrArUrGdAdT | 65.7%
sense rCrCrGrArArUrArUrCrArGrGrGrArGrCrCrCrCdTdT / antisense rGrGrGrGrCrUrCrCrCrUrGrArUrArUrUrCrGrGdTdC | 50%
sense rArCrCrArCrCrCrCrArArCrGrUrGrGrArCrGrAdTdT / antisense rUrCrGrUrCrCrArCrGrUrUrGrGrGrGrUrGrGrUdAdG | 64.9%
sense rCrCrUrGrCrGrGrArUrGrGrArCrCrUrCrGrCrUdTdT / antisense rArGrCrGrArGrGrUrCrCrArUrCrCrGrCrArGrGdGdG | 81.8%
sense rCrUrGrCrGrGrArArCrCrUrGrUrCrCrArGrCrGdTdT / antisense rCrGrCrUrGrGrArCrArGrGrUrUrCrCrGrCrArGdGdT | 76.1%
sense rCrCrCrUrGrCrGrGrArUrGrGrArCrCrUrCrGrCdTdT / antisense rGrCrGrArGrGrUrCrCrArUrCrCrGrCrArGrGrGdGdC | 59.7%
sense rArGrUrArUrCrCrGrUrUrCrArArGrCrCrUrCrCdTdT / antisense rGrGrArGrGrCrUrUrGrArArCrGrGrArUrArCrUdCdC | 53.7%
sense rCrCrArUrArCrCrUrGrCrGrGrArArCrCrUrGrUdTdT / antisense rArCrArGrGrUrUrCrCrGrCrArGrGrUrArUrGrGdGdG | 88.3%
sense rGrGrArUrGrGrArCrCrUrCrGrCrUrGrArCrCrUdTdT / antisense rArGrGrUrCrArGrCrGrArGrGrUrCrCrArUrCrCdGdC | 80.5%
sense rArGrUrUrCrArCrCrCrUrCrCrGrArUrUrCrGrGdTdT / antisense rCrCrGrArArUrCrGrGrArGrGrGrUrGrArArCrUdCdT | 55.3%
sense rArCrCrUrGrCrGrGrArArCrCrUrGrUrCrCrArGdTdT / antisense rCrUrGrGrArCrArGrGrUrUrCrCrGrCrArGrGrUdAdT | 73.8%
sense rArUrCrArGrCrUrUrCrCrCrGrCrCrGrGrArGrUdTdT / antisense rArCrUrCrCrGrGrCrGrGrGrArArGrCrUrGrArUdGdC | 52.3%
sense rUrUrCrArGrArArArGrArArUrGrCrCrGrArArGdTdT / antisense rCrUrUrCrGrGrCrArUrUrCrUrUrUrCrUrGrArAdCdA | 57.7%
sense rCrCrGrArArGrArGrUrUrCrArCrCrCrUrCrCrGdTdT / antisense rCrGrGrArGrGrGrUrGrArArCrUrCrUrUrCrGrGdCdA | 62.6%
sense rGrGrArGrUrArUrCrCrGrUrUrCrArArGrCrCrUdTdT / antisense rArGrGrCrUrUrGrArArCrGrGrArUrArCrUrCrCdGdG | 84.6%
sense rArUrGrGrArCrCrUrCrGrCrUrGrArCrCrUrGrCdTdT / antisense rGrCrArGrGrUrCrArGrCrGrArGrGrUrCrCrArUdCdC | 43.8%
sense rCrUrGrGrArGrGrCrCrCrUrCrArArUrGrUrGrCdTdT / antisense rGrCrArCrArUrUrGrArGrGrGrCrCrUrCrCrArGdGdA | 48.2%
sense rArCrCrUrGrCrGrCrArUrCrArGrCrUrUrCrCrCdTdT / antisense rGrGrGrArArGrCrUrGrArUrGrCrGrCrArGrGrUdTdG | 70.9%

Substance | normalised inhibition (eCFP-eYFP dual reporter)
sense rArArArGrCrCrUrUrCrArArCrCrUrGrCrGrCrAdTdT / antisense rUrGrCrGrCrArGrGrUrUrGrArArGrGrCrUrUrUdCdA | 69.8%
sense rArCrCrUrCrGrCrUrGrArCrCrUrGrCrUrGrArCdTdT / antisense rGrUrCrArGrCrArGrGrUrCrArGrCrGrArGrGrUdCdC | 58.6%
sense rCrUrUrCrCrCrGrCrCrGrGrArGrUrArUrCrCrGdTdT / antisense rCrGrGrArUrArCrUrCrCrGrGrCrGrGrGrArArGdCdT | 38.1%
sense rGrUrGrArArUrArGrArCrCrGrArArUrArUrCrAdTdT / antisense rUrGrArUrArUrUrCrGrGrUrCrUrArUrUrCrArCdCdA | 89.9%
sense rGrUrGrGrCrArCrGrCrUrCrUrCrCrUrCrCrUrAdTdT / antisense rUrArGrGrArGrGrArGrArGrCrGrUrGrCrCrArCdAdC | 96.9%
sense rGrCrGrArUrGrArUrGrCrCrArArUrGrUrCrCrUdTdT / antisense rArGrGrArCrArUrUrGrGrCrArUrCrArUrCrGrCdTdG | 107%
sense rGrArGrCrCrCrCrUrGrCrGrGrArUrGrGrArCrCdTdT / antisense rGrGrUrCrCrArUrCrCrGrCrArGrGrGrGrCrUrCdCdC | 55.9%
sense rArUrUrCrArCrArArCrCrArArGrArUrCrUrArCdTdT / antisense rGrUrArGrArUrCrUrUrGrGrUrUrGrUrGrArArUdTdT | 51%
sense rArGrGrGrArGrCrCrCrCrUrGrCrGrGrArUrGrGdTdT / antisense rCrCrArUrCrCrGrCrArGrGrGrGrCrUrCrCrCrUdGdA | 60.1%
sense rArGrCrGrArUrGrArUrGrCrCrArArUrGrUrCrCdTdT / antisense rGrGrArCrArUrUrGrGrCrArUrCrArUrCrGrCrUdGdG | 87.3%
sense rUrCrArArGrCrCrUrCrCrCrArUrGrArUrCrArAdTdT / antisense rUrUrGrArUrCrArUrGrGrGrArGrGrCrUrUrGrAdAdC | 86.7%
sense rUrGrCrCrGrArArGrArGrUrUrCrArCrCrCrUrCdTdT / antisense rGrArGrGrGrUrGrArArCrUrCrUrUrCrGrGrCrAdTdT | 59.9%
sense rCrCrUrArCrCrCrGrArCrCrArArCrCrUrCrCrCdTdT / antisense rGrGrGrArGrGrUrUrGrGrUrCrGrGrGrUrArGrGdAdG | 55.6%
sense rArArCrUrGrGrArArGrCrCrUrUrGrCrArCrCrAdTdT / antisense rUrGrGrUrGrCrArArGrGrCrUrUrCrCrArGrUrUdCdT | 77.8%
sense rArCrCrArArGrArUrCrUrArCrCrArCrCrCrCrAdTdT / antisense rUrGrGrGrGrUrGrGrUrArGrArUrCrUrUrGrGrUdTdG | 90.8%
sense rCrArCrArGrArArUrCrCrGrGrArGrCrUrGrUrUdTdT / antisense rArArCrArGrCrUrCrCrGrGrArUrUrCrUrGrUrGdTdC | 97.8%
sense rCrCrUrGrUrCrCrArGrCrGrArUrGrArUrGrCrCdTdT / antisense rGrGrCrArUrCrArUrCrGrCrUrGrGrArCrArGrGdTdT | 77.6%
sense rGrUrCrCrUrGrGrUrGrUrGrGrCrArCrGrCrUrCdTdT / antisense rGrArGrCrGrUrGrCrCrArCrArCrCrArGrGrArCdAdT | 74.2%
sense rArArUrGrCrCrGrArArGrArGrUrUrCrArCrCrCdTdT / antisense rGrGrGrUrGrArArCrUrCrUrUrCrGrGrCrArUrUdCdT | 51.6%
sense rArArCrCrArArGrArUrCrUrArCrCrArCrCrCrCdTdT / antisense rGrGrGrGrUrGrGrUrArGrArUrCrUrUrGrGrUrUdGdT | 43.6%
sense rUrCrArArUrGrUrGrCrUrGrGrUrGrArArUrArGdTdT / antisense rCrUrArUrUrCrArCrCrArGrCrArCrArUrUrGrAdGdG | 69.1%
sense rGrGrCrArCrGrCrUrCrUrCrCrUrCrCrUrArCrCdTdT / antisense rGrGrUrArGrGrArGrGrArGrArGrCrGrUrGrCrCdAdC | 62.5%
sense rCrUrUrGrCrArCrCrArArGrArCrUrUrGrCrCrAdTdT / antisense rUrGrGrCrArArGrUrCrUrUrGrGrUrGrCrArArGdGdC | 89.6%
sense rCrCrCrArUrCrArUrCrArGrCrArGrUrGrArGrAdTdT / antisense rUrCrUrCrArCrUrGrCrUrGrArUrGrArUrGrGrGdCdA | 74%
sense rUrGrGrUrGrUrGrGrCrArCrGrCrUrCrUrCrCrUdTdT / antisense rArGrGrArGrArGrCrGrUrGrCrCrArCrArCrCrAdGdG | 89.5%
sense rUrUrCrCrCrGrCrCrGrGrArGrUrArUrCrCrGrUdTdT / antisense rArCrGrGrArUrArCrUrCrCrGrGrCrGrGrGrArAdGdC | 43%
